# In patent US10668051B2, “Modulators of calcium release-activated calcium channel” (Rhizen Pharmaceuticals SA, priority 2009, dated 2020):
# Structures can show the parent of a compound that is named as a salt.
# Legend:
# Format in all cases: cell-based
# CRAC channels [1] = molecular target: T1, CRAC channels (Homo sapiens (Human), UniProt Q96D31); assay: In-vitro CRAC channel inhibition assay in Jurkat cells (thapsigargin-induced calcium influx)
# Method in brief: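 Jurkat cells given test compounds in Ca2+/Mg2+-free Hanks buffer for 15 min, then thapsigargin (1 μM final) for 15 min to deplete ER stores. IC50 from percent inhibition of thapsigargin-induced Ca2+ influx.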
# CRAC channels [2] = molecular target: T1, CRAC channels; assay: In-vitro CRAC channel inhibition assay in NCI-H460 cancer cell line (Ca assay); conditions: thapsigargin-induced calcium influx, NCI-H460 cells
# Experimental: 1B. In-Vitro CRAC Channel Inhibition Assay in NCI-H460 Cancer Cell Line
# Inhibition of CRAC channels was determined following thapsigargin (Sigma, Cat #T9033) induced endoplasmic calcium release in NCI-H460 cells (National Centre For Cell Science (NCCS), Pune).
# Cells (30,000 per well) were plated overnight in complete RPMI medium. Medium was substituted with Ca^2+ and Mg^2+ free Hanks buffer and Fluo-8 NW dye (ABD Bioquest, Inc., Sunnyvale, Calif.) loading solution in 96-well black plate. Plate was incubated at 37° C./5% CO2 for 30 min followed by further 15 min incubation at room temperature. Test compounds (DMSO stocks diluted in Ca^2+ and Mg^2+ free Hanks buffer) at desired concentrations were added to the wells and incubated for 15 min. Thapsigargin (1 μM final concentration) was added to the wells and incubated for 15 min to inhibit the Sarco-endoplasmic reticulum Ca^2+ ATPase pump thereby depleting endoplasmic calcium and raising cytosolic calcium concentrations. Store-operated calcium entry was initiated by adding extracellular Ca^2+ to a final concentration of 2.5 mM. Fluorescence was monitored over 30 min on a plate reader (BMG Labtech., Germany) with excitation at 485 nm and an emission wavelength at 520 nm. Data were analyzed using GraphPad Prism. IC50 for each compound was determined based on the percent inhibition of Thapsigargin-induced calcium influx into cells.
# [3] = system: NCI-H460 cancer cell line; assay: In-vitro cell proliferation assay in NCI-H460 cancer cell line (MTT); conditions: Homo sapiens, 48 h; for IC50: read-out: NCI-H460 Cell line assay G1 50 nM
# Experimental: 1C. In-Vitro Cell Proliferation Assay in NCI-H460 Cancer Cell Line (Anticancer Activity)
# Growth inhibition assays were carried out using 10% FBS supplemented media. Cells were seeded at a concentration of 5000 cells/well in a 96-well plate. Test compound at a concentration range from 0.01 to 10000 nM were added after 24 h. Growth was assessed using the 3-[4,5-dimethylthiazol-2-yl]-2,5-diphenyltetrazolium bromide (MTT) dye reduction test at 0 h (prior to the addition of the test compound) and 48 h after the addition of test compound. Absorbance was read on a Fluostar Optima (BMG Labtech, Germany) at a wave length of 450 nm. Data were analysed using GraphPad Prism. IC-50 for each compound was determined based on the % inhibition due to the test compound compared to the control.
# For methods of cell proliferation assay, see, for example, Mosmann. T., Journal of Immunological Methods, 65(1-2), 55-63, (1983).
# IL-2 [4] = assay: Inhibition of cytokine release in PBMC: IL-2; conditions: Homo sapiens, Con A + PMA, 20 h, ELISA, read-out: IC 50 PBMC IL-2
# Experimental: (§1) 2. In Vitro Inhibition of Cytokine Release in Jurkat Cells, Human Whole Blood and Peripheral Blood Mononuclear Cells (PBMC).
# (§2) Inhibition of cytokine IL-2, IL-4, IL-5 and TNF α was determined as described below. • a. Inhibition of IL-2 in Jurkat cells: Cells were incubated with desired concentrations of the inhibitor for 15 min. Cytokine release was induced by the addition of Concanavalin A (25 μg/ml)+Phorbol Myristate Acetate (50 ng/ml) for IL-2 & TNFα or with Phytohemagglutinin ([…]) for IL-4 & IL-5 and incubated at 37° C. in an atmosphere containing […]. Supernatant was collected after 20 h (IL-2 & TNFα) or 48 h (IL-4 & IL-5) for estimation of cytokines by ELISA. Data were analysed using GraphPad Prism. IC50 values for each compound were determined based on the percent inhibition due to the test compound compared to the control. • b. Inhibition of cytokine release in Human Whole Blood (HWB): Freshly collected HWB was diluted with RPMI medium (1:4.5) and added to a 96-well plate. Wells were incubated with desired concentrations of the inhibitor for 15 min. Cytokine release was induced by the addition of Concanavalin A (25 μg/ml)+Phorbol Myristate Acetate (50 ng/ml) for IL-2 & TNFα or with Phytohemagglutinin (5 μg/ml) for IL-4 & IL-5 and incubated at 37° C. in an atmosphere containing […]. Supernatant was collected after 20 h (IL-2 & TNFα) or 48 h (IL-4 & IL-5) for estimation of cytokines by ELISA. Data were analysed using GraphPad Prism. IC50 values for each compound were determined based on the percent inhibition due to the test compound compared to the control. • c. Inhibition of cytokine release in PBMC: PBMC from freshly collected HWB were isolated by density gradient using Histopaque and seeded in a 96-well plate. Cells were incubated with desired concentrations of the inhibitor for 15 min. Cytokine release was induced by the addition of Concanavalin A (25 μg/ml)+Phorbol Myristate Acetate (50 ng/ml) for IL-2 & TNFα or with Phytohemagglutinin (5 μg/ml) for IL-4 & IL-5 and incubated at 37° C. in an atmosphere containing […]. Supernatant was collected after 20 h (IL-2 & TNFα) or 48 h (IL-4 & IL-5) for estimation of cytokines by ELISA. Data were analysed using GraphPad Prism. IC50 values for each compound were determined based on the percent inhibition due to the test compound compared to the control.
# IL-2 [5] = assay: Inhibition of cytokine release in Human Whole Blood: IL-2; conditions: Con A + PMA, 20 h, ELISA, read-out: IC 50 Human Whole Blood IL-2
# Experimental: as §1, §2
# TNFα [6] = assay: Inhibition of cytokine release in PBMC: TNFα; conditions: Homo sapiens, Con A + PMA, 20 h, ELISA, read-out: IC 50 PBMC TNFα
# Experimental: as §1, §2
# IL-2 [7] = assay: Inhibition of IL-2 in Jurkat cells; conditions: Homo sapiens, Con A + PMA, 20 h, ELISA, read-out: IC 50 Jurkat IL-2
# Experimental: as §1, §2
# TNFα [8] = assay: Inhibition of cytokine release in Human Whole Blood: TNFα; conditions: Con A + PMA, 20 h, ELISA, read-out: IC 50 Human Whole Blood TNFα
# Experimental: as §1, §2
# T1 sequence (Q96D31 whole entry): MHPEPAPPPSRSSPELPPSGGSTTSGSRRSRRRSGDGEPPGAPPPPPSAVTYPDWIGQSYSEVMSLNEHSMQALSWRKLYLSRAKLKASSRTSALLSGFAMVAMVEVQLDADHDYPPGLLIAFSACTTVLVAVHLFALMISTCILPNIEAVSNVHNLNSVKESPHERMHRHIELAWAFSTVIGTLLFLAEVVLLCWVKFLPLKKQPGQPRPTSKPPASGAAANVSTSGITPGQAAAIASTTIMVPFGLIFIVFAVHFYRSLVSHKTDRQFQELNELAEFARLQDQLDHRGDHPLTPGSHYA
Compound,inhibition at 1 µM (CRAC channels [1]),inhibition at 1 µM (CRAC channels [2]),IC50 (IL-2 [5]),inhibition at 10 µM [3],other results
"Cc1ncsc1C(=O)Nc1ccc(-n2nc(C3CC3)cc2C2CC2)cc1 [Example 2, N-[4-(3,5-dicyclopropyl-1H-pyrazol-1-yl)phenyl]-4-methylthiazole-5-carboxamide]",100%,100%,–,–,IC50 [3]: 197 nM
"O=C(Nc1ccc(-n2nc(C3CC3)cc2C2CC2)cc1)C1(c2ccccc2)CC1 [Example 21, N-[4-(3,5-dicyclopropyl-1H-pyrazol-1-yl)phenyl]-1-phenylcyclopropanecarboxamide]",78.4%,–,–,41%,–
"O=C(Nc1ccc(-n2nc(C3CC3)cc2C2CC2)cc1)c1cccc(F)c1F [Example 9, N-[4-(3,5-dicyclopropyl-1H-pyrazol-1-yl)phenyl]-2,3-difluorobenzamide]",98.6%,86.8%,–,14%,–
"Cc1ccccc1C(=O)Nc1ccc(-n2nc(C(F)(F)F)cc2C2CC2)nc1 [Example 104, N-{6-[5-cyclopropyl-3-(trifluoromethyl)-1H-pyrazol-1-yl]pyridin-3-yl}-2-methylbenzamide]",100%,–,96.1 nM,–,IC50 (TNFα [6]): 21.1 nM; IC50 (TNFα [8]): 582 nM; IC50 (IL-2 [7]): 57.5 nM; IC50 (IL-2 [4]): 66.7 nM
"Cc1nnsc1C(=O)Nc1ccc(-n2nc(C(F)(F)F)cc2C2CC2)cc1 [Example 52, N-{4-[5-cyclopropyl-3-(trifluoromethyl)-1H-pyrazol-1-yl]phenyl}-4-methyl-1,2,3-thiadiazole-5-carboxamide]",100%,78.2%,–,34%,–
"Cc1ncsc1NC(=O)c1ccc(-n2nc(C(F)(F)F)cc2C2CC2)cc1 [Example 78, 4-[5-cyclopropyl-3-(trifluoromethyl)-1H-pyrazol-1-yl]-N-(4-methylthiazol-5-yl)benzamide]",100%,–,34.7 nM,–,IC50 (IL-2 [4]): 149 nM
"Cc1nc(C)c(C(=O)Nc2ccc(-n3nc(C(F)(F)F)cc3C3CC3)cc2)s1 [Example 55, N-{4-[5-cyclopropyl-3-(trifluoromethyl)-1H-pyrazol-1-yl]phenyl}-2,4-dimethylthiazole-5-carboxamide]",100%,100%,–,–,IC50 [3]: 613 nM
"C[C@]12C=CC(=O)C=C1CC[C@@H]1[C@@H]2[C@@H](O)C[C@@]2(C)[C@H]1CC[C@]2(O)C(=O)CO [Prednisolone, reference compound]",–,–,77.2 nM,–,IC50 (IL-2 [7]): 35.5 nM; IC50 (IL-2 [4]): 3.72 nM
"Cc1nnsc1C(=O)Nc1ccc(-n2nc(C3CC3)cc2C2CC2)cc1 [Example 1, N-[4-(3,5-dicyclopropyl-1H-pyrazol-1-yl)phenyl]-4-methyl-1,2,3-thiadiazole-5-carboxamide]",99%,93.2%,338 nM,31%,IC50 (TNFα [8]): 1080 nM
"O=C(Nc1ccc(-n2nc(C3CC3)cc2C2CC2)cc1)c1ccccc1 [Example 6, N-[4-(3,5-dicyclopropyl-1H-pyrazol-1-yl)phenyl]benzamide]",41.3%,86%,–,35%,–

# The next lines start with results.
inhibition at 1 µM (CRAC channels [1]),inhibition at 1 µM (CRAC channels [2]),IC50 (IL-2 [5]),Compound,inhibition at 10 µM [3],other results
100%,–,38.2 nM,"Cc1nnsc1C(=O)Nc1ccc(-n2nc(C(F)(F)F)cc2C2CC2)c(F)c1 [Example 82, N-{4-[5-cyclopropyl-3-(trifluoromethyl)-1H-pyrazol-1-yl]-3-fluorophenyl}-4-methyl-1,2,3-thiadiazole-5-carboxamide]",–,IC50 (IL-2 [4]): 24.6 nM
100%,–,199 nM,"O=C(Nc1ccc(-n2nc(C(F)(F)F)cc2C2CC2)cc1)c1c(Cl)cncc1Cl [Example 49, 3,5-dichloro-N-{4-[5-cyclopropyl-3-(trifluoromethyl)-1H-pyrazol-1-yl]phenyl}isonicotinamide]",–,–
100%,–,83.6 nM,"O=C(Nc1ccc(-n2nc(C(F)(F)F)cc2C2CC2)nc1)c1ccccc1F [Example 106, N-(6-(5-cyclopropyl-3-(trifluoromethyl)-1H-pyrazol-1-yl)pyridin-3-yl)-2-fluorobenzamide]",–,IC50 (TNFα [6]): 105 nM; IC50 (IL-2 [7]): 60.5 nM; IC50 (IL-2 [4]): 11.5 nM
100%,–,–,"O=C(Nc1ccc(-n2nc(C(F)(F)F)cc2C2CC2)c(F)c1)c1ccncc1F [Example 91, N-{4-[5-cyclopropyl-3-(trifluoromethyl)-1H-pyrazol-1-yl]-3-fluorophenyl}-3-fluoroisonicotinamide]",92.7%,IC50 [3]: 1360 nM
100%,–,78.4 nM,"Cc1oncc1C(=O)Nc1ccc(-n2nc(C(F)(F)F)cc2C2CC2)cc1 [Example 56, N-{4-[5-cyclopropyl-3-(trifluoromethyl)-1H-pyrazol-1-yl]phenyl}-5-methylisoxazole-4-carboxamide]",–,–
100%,–,82.8 nM,"O=C(Nc1ccc(-n2nc(C(F)(F)F)cc2C2CC2)nc1)c1cccnc1 [Example 111, N-{6-[5-cyclopropyl-3-(trifluoromethyl)-1H-pyrazol-1-yl]pyridin-3-yl}nicotinamide hydrochloride]",–,–
100%,–,–,"O=C(Nc1ccc(-n2nc(C(F)(F)F)cc2C2CC2)c(F)c1)c1ccncc1 [Example 90, N-{4-[5-cyclopropyl-3-(trifluoromethyl)-1H-pyrazol-1-yl]-3-fluorophenyl}isonicotinamide hydrochloride]",90.7%,IC50 [3]: 305 nM
95.8%,–,–,"O=C(Nc1ccc(-n2nc(C(F)(F)F)cc2C2CC2)c(F)c1)c1c(Cl)cncc1Cl [Example 92, 3,5-dichloro-N-{4-[5-cyclopropyl-3-(trifluoromethyl)-1H-pyrazol-1-yl]-3-fluorophenyl}isonicotinamide]",100%,–
